Data set [1] has as its system HSV-1. Kind of data set: Dermal HSV-1 infection in guinea pigs, topical treatment, compared with placebo/vehicle. It counts as in vivo. The conditions noted are these: guinea pig; for reduction in lesion area (in words) / reduction in lesion number (in words) / reduction in lesion virus titer / skin viral titres (in words): dermal HSV-1, topical, compared to vehicle or to Prodrug 1. On the procedure: The formulation for Prodrug 1 contained 5% EL-620 EMULPHOR (polyoxyethylated castor oil) (Rhone Poluenc), 5% CARBOPOL (Carboxypolymethylene, sodium salt) (B. F. Goodrich), 10% ethanol and 2% by weight Prodrug 1. The balance of the formulation consisted of water.
EL-620 EMULPHOR and water were mixed and ultrasonicated to give a clear emulsion, to which the ethanol was added. The prodrug was then added, and the mixture was ultrasonicated. The sodium carbopol was then added to the emulsion and mixed until to homogeneity.
The placebo was prepared identically to the pharmaceutical compositions except that the prodrugs were omitted.
Female Hartley outbred guinea pigs, 400 to 450 grams, were obtained from Charles River Breeding Labs, Wilmington, Mass. Animals were anesthetized with 25 mg/kg ketamine and 5 mg/kg xylazine SQ. Hair on the dorsum from the shoulders to the rump was removed with electric clippers followed by two 5-10 minute applications of a chemical depilatory. A grid of four areas was demarcated with a pen on both sides of the spine at levels corresponding to mid back and rump.
Undiluted HSV-1 virus stock (0.035 ml) was applied to each different area and introduced through the skin at well-spaced sites at ten activations of a six-pronged spring-loaded vaccination instrument (Sterneedle, Pan Ray Division, Ormont Drug, Englewood, N.J.). The day of inoculation is Day 0. Approximately 250 mg of drug or placebo was applied to the areas according to the dosing regimen on Days 1, 2 and 3. Eight guinea pigs were used during the experiments allowing eight comparisons between each drug and its placebo.
On Day 4 regrown hair on the dorsum of the guinea pigs was removed with one 3-4 minute application of a chemical depilatory. HSV lesions were counted and Polaroid pictures of the animals' backs were taken. The animals were sacrificed using CO2 gas and the full thickness skin of the back was removed by dissection. The square of the skin from each of the four treatment areas was placed into 15 mls of tissue culture medium with 2% FBS in an ice bath. The samples were then homogenized in a stomacher Lab Blender 80 (Tekmar Co.). Debris was pelleted by centrifugation and the supernatants collected and frozen at −70° C. until assay for infectivity by plaque formation in VERO cells.
The mean and standard deviation for number of lesions, total lesion area and lesion virus titer were computed. Paired data (drug/vehicle) were evaluated by the Wilcoxon signed-rank test using percent differences between log10 derivatives of mean lesions severity at drug-treated sites compared to the vehicle-treated sites.
Prodrug 2 was formulated as described in Example 1. One Hartley guinea pig was inoculated with HSV-1 as described in Example 1. The guinea pig was treated with Prodrug 2 according to the protocol used in Example 1 for Prodrug 1.

For data set [2], the system named is pig liver esterase. Description: Incubation with pig liver esterase in phosphate buffered D2O, followed by NMR. The data set is classed as in vitro ADME. From the text: This assay is described in Glazier, WO 91/19721 entitled “Phosphorus Prodrugs” and can be used to determine suitable hydroxyl or amino protecting groups which can be cleaved in vivo. The entire teachings of […] are incorporated herein by reference. It is to be understood that there are other in vitro assays known to one of ordinary skill in the art employing esterases, amidases or enzymes capable of cleaving carbonate, carbamate, ester and amide groups which can also be used to determine suitable protecting groups.

Data set [3] relates to herpes simplex labialis. As to conditions: cited from earlier work.
[4] abbreviates: dermal HSV-1, topical 2% formulation, Days 1-3, read Day 4, p<0.01.

Entries after “also recorded” stand apart in the source; their conditions may differ.

`COC(=O)CC(OP(=O)([O-])OCCOCn1cnc2c(=O)[nH]c(N)nc21)c1ccc(OC(=O)C(C)(C)C)cc1.[Na+]` (stereo not drawn) [Prodrug 1]: in data set [1] (setting [4]), the “reduction in lesion area compared with placebo” value is 79% and the “reduction in lesion number compared with placebo” value turned out to be 72%. Besides, the “reduction in skin viral titres compared with placebo” value in data set [1] (dermal HSV-1, topical 2% formulation, Days 1-3, read Day 4, plaque formation in VERO cells, p<0.01) is on record as 93%. Also, in data set [1], the “reduction in lesion area (in words)” value is on record as “dramatic reduction”, the “reduction in lesion number (in words)” value is “dramatic reduction” and the “reduction in lesion virus titer / skin viral titres (in words)” value is “dramatic reduction”. For the same compound, the “degradation products with esterase” value in data set [2] is “degraded to acyclovir monophosphate and p-hydroxycinnamic”.

Consider `COC(=O)CC(OP(=O)([O-])OCCOCn1cnc2c(=O)[nH]c(N)nc21)c1ccc(OC(C)=O)cc1.[Na+]` (stereo not drawn) [Prodrug 2], for which, in data set [1], the “reduction in lesion area (in words)” value is “comparable reduction; also recorded: dramatic reduction”, the “reduction in lesion number (in words)” value is listed as “comparable reduction; also recorded: dramatic reduction” and the “reduction in lesion virus titer / skin viral titres (in words)” value was “comparable reduction; also recorded: dramatic reduction”.

Turning to `Nc1nc2c(ncn2COCCO)c(=O)[nH]1` [acyclovir], the “effectiveness of oral administration for cold sores” value in data set [3] (oral) is given as “only partially effective”. In data set [3] (topical), the “response of cold sores to topical treatment” value is “do not respond”.

The values above are taken from US20010012893A1, “Acyclovir diester derivatives” (Drug Innovation & Design, Inc., priority 1997, published 2001).
